Where two headings read alike, the source gives them in different places.
Key:
[1] = tested on: Nocardia corallina B-276 (FERM P-4094; FERM BP-5124; ATCC 31338); assay: Reaction rate of degradation of chlorine-substituted substrates (Example 4, Table 1); type: cell-based
Experimental: Experiments were also carried on tetrachloroethylene (perchloroethylene) (PCE) and 1,2-dichloroethane (1,2-DCA).
The initial concentration of each substrate in the liquid phase was selected so as not to exceed 20 mg/l, i.e., the range in which no inhibition on the enzyme reaction is expected. Specifically, the substrate was added in an amount of […] which corresponded to 11.2 mg/l of trichloroethylene in terms of initial concentration in the liquid phase. […] The cell concentration during the reaction was set at 4.0 g/l or 8.0 g/l, and the concentration of the substrate remaining in the gas phase was measured with time in the same manner as in Example 3 and converted to the concentration in the liquid phase, from which the reaction rate was calculated.

[2] = tested on: Nocardia corallina B-276 (FERM P-4094; FERM BP-5124; ATCC 31338); assay: Influence of trichloroethylene concentration on reaction rate of biological oxidation (Example 3); type: cell-based; conditions: 35° C.
Source text: In the biological oxidation of trichloroethylene with Nocardia corallina B-276 (FERM […]; FERM BP-5124; ATCC 31338), the influence of the trichloroethylene concentration on the reaction rate was examined as follows.
Nocardia corallina B-276 (FERM P-4094; FERM BP-5124; ATCC 31338) was previously proliferated in the same manner as described in Example 1. The microbial cells collected were suspended in a medium (K2 HPO4 1.74 g, MgSO4 .7H2 O 1.5 g, FeSO4.H2 O 0.05 g, deionized water 1 l; adjusted to pH 8.0) to prepare a cell suspension.
In a 17 ml-volume flask was put 2 ml of the cell suspension, 100 μl of a 10% glucose solution added as an energy source, a varied amount of trichloroethylene added thereto, and the flask sealed and incubated at 35° C. for 5 hours while shaking to allow the cells to act on the trichloroethylene. The cell concentration was 2.44 g/l. A 1 ml aliquot of the gas was taken out every 1 hour from the gas phase of the sealed flask and analyzed by gas chromatography (column: Porapak Q) to measure the gaseous trichloroethylene concentration. The trichloroethylene concentration remaining in the liquid phase was calculated from the gaseous phase trichloroethylene concentration. This calculation was made on the assumption that the partitioning of trichloroethylene between the gas and liquid phases in the vial are obeyed by the partition law.
FIG. 3 is a graph of rate of reduction of liquid phase trichloroethylene concentration plotted against initial trichloroethylene concentration.

[3] = tested on: E. coli JM109 (pDBB-1) (FERM BP-4250), transformant having an alkene monooxygenase gene of Nocardia corallina B-276 origin; assay: Degradation of trichloroethylene by transformant E. coli JM109 (pDBB-1) cell suspension (Example 2); type: cell-based, Escherichia coli; conditions: 1 mM trichloroethylene, glucose added, 30° C., 12 hours
Experimental: LB medium (1.5 ml) (a liquid medium containing 10 g of Bacto-trypton, 5 g of Bacto-yeast extract, 10 g of sodium chloride, and deionized water to make 1 l, adjusted to pH 7.2 with a 1N aqueous […] solution, steam sterilized by autoclaving at 120° C. for 15 minutes) containing 50 μg/ml of ampicillin was inoculated with one loopful of E. coli JM109 (pDBB-1) (FERM BP-4250) using a platinum loop, which is a transformant having an alkene monooxygenase gene of Nocardia corallina B-276 origin, and incubated at 37° C. overnight (about 14 hours) for previous proliferation of the microorganism. Then, 100 ml of LB medium containing 50 μg/ml of ampicillin was inoculated with the resulting culture and incubated at 37° C. for 2 hours. To the culture was added isopropyl-β-D-thiogalactopyranoside (IPTG) at a final concentration of 1 mM, followed by further shake culture at 37° C. for 5 hours. A 10 ml aliquot of the resulting culture was centrifuged to collect the microbial cells, which were suspended in 2 ml of a minimal medium (K2 HPO4 1.74 g, MgSO4.7H2 O 1.5 g, FeSO4.H2 O 0.05 g, deionized water 1 l; adjusted to pH 8.0) to prepare a cell suspension. […]

[4] = tested on: Nocardia corallina B-276 (FERM P-4094; FERM BP-5124; ATCC 31338); assay: Degradation of trichloroethylene by Nocardia corallina B-276 cell suspension (Example 1); type: cell-based; conditions: 1 mM trichloroethylene, glucose added, 30° C., 12 hours
Experimental: In a 500 ml Sakaguchi's flask was put 100 ml of NBG medium (a liquid medium containing 10 g of Lab-Lemco powder (produced by Oxoid Co., Ltd.), 10 g of bacteriological peptone, 10 g of glucose, 5 g of sodium chloride, and water to make 1 l, adjusted to pH 7.5 with a 1N aqueous sodium hydroxide solution, steam sterilized by autoclaving at 120° C. for 15 minutes) and inoculated with three loopfuls of Nocardia corallina B-276 (FERM P-4094; FERM BP-5124; ATCC 31338) using a platinum loop, followed by shake culture at 30° C. for 96 hours for previous proliferation.
The resulting culture was centrifuged to collect the microbial cells, which were suspended in 50 ml of a minimal medium (K2 HPO4 1.74 g, MgSO4. 7H2 O 1.5 g, FeSO4. H2 O 0.05 g, deionized water 1 l; adjusted to pH 8.0) to prepare a cell suspension. […]
For comparison, 50 ml of a cell-free medium (K2 HPO4 1.74 g, MgSO4.7H2 O 1.5 g, FeSO4. H2 O 0.05 g, deionized water 1 l; adjusted to pH 8.0) was put to a flask of the same volume as used above, and 2.5 ml of a 10% glucose solution and trichloroethylene (final concentration: 1 mM) were added thereto. […] The signal intensity (I2) was 95% or more of the initial signal intensity (I0) measured on the medium immediately after addition of trichloroethylene.

[5] = Cell Concentration 4.0 g/l, initial substrate concentration not exceeding 20 mg/l

Cl/C=C/Cl [trans-1,2-dichloroethylene]
degradability by Nocardia corallina B-276 [1]: can be degraded | Reaction Rate [1, 5]: 6.5 mg/L/h | Reaction Rate ([1]; cell concentration 4.0 g/l): 6.5 mg/l hr

Cl/C=C\Cl [cis-1,2-Dichloroethylene, cis-1,2-dichloroethylene]
degradability by Nocardia corallina B-276 [1]: can be degraded | Reaction Rate [1, 5]: 72.2 mg/L/h

ClCCCl [1,2-Dichloroethane, 1,2-dichloroethane]
Reaction Rate [1, 5]: 0 mg/L/h | degradability by Nocardia corallina B-276 ([1]; result in words): cannot be degraded

ClC(Cl)=C(Cl)Cl [Tetrachloroethylene, tetrachloroethylene]
Reaction Rate [1, 5]: 0 mg/L/h | degradability by Nocardia corallina B-276 ([1]; result in words): cannot be degraded

ClC=C(Cl)Cl [Trichloroethylene, trichloroethylene]
Michaelis constant Km of the trichloroethylene substrate ([2]; cell concentration 2.44 g/l, calculated based on the results of FIG. 3): 90.4 mg/L | Km ([2]; cell concentration 2.44 g/l, calculated based on the results of FIG. 3, read-out: Michaelis constant Km of the trichloroethylene substrate): 678 µM | inhibition of the reaction by substrate ([2]; at least up to 90 mg/l of the initial trichloroethylene concentration in the liquid phase): no obvious inhibition | Reaction Rate [1, 5]: 5.5 mg/L/h | Reaction Rate ([1]; cell concentration 4.0 g/l): 5.5 mg/l hr | trichloroethylene degraded [3]: about 17% | trichloroethylene concentration remaining in the medium (signal intensity I4 relative to I3) ([3]; sealed flask, gas chromatography): about 83% | trichloroethylene degraded [4]: about 98% | trichloroethylene concentration remaining in the medium (signal intensity I1 relative to I2) ([4]; sealed flask, gas chromatography, relative to cell-free medium): about 2%

C=C(Cl)Cl [1,1-Dichloroethylene, 1,1-dichloroethylene]
Reaction Rate ([1]; Cell Concentration 8.0 g/l, initial substrate concentration not exceeding 20 mg/l): 14.8 mg/L/h | reaction rate, corresponding value (for the cell concentration of the other substrates) ([1]; converted from the 8.0 g/l measurement): 7.4 mg/l hr | degradability by Nocardia corallina B-276 ([1]; result in words): can be degraded
